Experimental data as given in patent US20210038591A1, “VIRAL VECTOR TRANSDUCTION” (Oxford University Innovation Limited, priority 2018, published 2021).

Columns and labels:
[1] = mefloquine enantiomers; cited from earlier work
[2] = test system: Primary NHP RPE cells; assay: HCQ effect on AAV transduction in primary NHP RPE cells, GFP protein western blot; type: cell-based, Rhesus macaque (M. mullata); conditions: 18.75 μM HCQ
Experimental: (§1) Harvesting non-human primate (NHP) retinal pigment epithelium (RPE) cells. After enucleation, the cornea and lens were removed under direct visualization with a surgical microscope. Radial incisions were made towards the posterior pole to flatten the eyecup. The retina was removed by blunt dissection and the remaining eyecup was placed in media and stored on ice until the RPE cells were removed. RPE cells were detached using the TrypLE cell dissociation reagent and were cultured at 37° C.
(§2) Cell culture. Primary NHP RPE cells were seeded into a 12-well plate. 24 hr after seeding, the cells were incubated in media with 3.125 uM or 18.75 uM of HCQ for 1 hr prior to transduction with 2×10^9 genome copies per well. Cells were imaged 3 days post-transduction.
Protein extraction. The flow through from RNA extraction above was combined with 4 volumes of acetone and incubated on ice for 30 min. Samples were centrifuged at 17,000×g for 30 min, the supernatant was discarded and the pellet washed in 100 μL of ice-cold ethanol. Pellets were resuspended in 1% SDS.
Western blot. Total protein content in cell lysates was determined using the bicinchoninic acid method. GFP and actin proteins were probed using monoclonal antibodies, and detected using ECL and Odyssey Imaging System (LI-COR). Data analysis was performed using ImageStudio Lite software (LI-COR). GFP band density was normalised to β-actin.

[3] = test system: retina of C57BL/6 mice; assay: Subretinal co-injection of AAV GFP vector and HCQ in mice, OCT retinal thickness; type: in vivo, mouse; conditions: subretinal injection suspension with 3.125 uM or 18.75 uM HCQ, OCT at 2, 4 and 8 weeks
Experimental: (§3) Subretinal injections. 7 week old female C57BL/6 mice were subretinally injected with 1.2 μL vector suspension (1×10^8 genome copies). The vector was prepared with a 3.125 uM or 18.75 uM final concentration of HCQ with control preparations without any HCQ. Animals were injected with an AAV+HCQ preparation in one eye and AAV only in the paired eye.
OCT analysis. Animals were subject to wide-field spectral-domain optical coherence tomography (OCT, Spectralis HRA, Heidelberg Engineering) at 2, 4 and 8 weeks post-injection. Mice were scanned using a 55° lens and 8 radial sections were taken with a real-time average process of 25 frames. The total retinal thickness and the outer limiting membrane (OLM) thickness were manually measured on alternate radial sections using a calliper.

[4] = test system: Wildtype (WT) mouse embryonic fibroblasts (MEFs); assay: HCQ effect on AAV (rAAV2.CAG.GFP.WPRE.pA) transduction in MEFs, flow cytometry GFP / 7-AAD; type: cell-based
Experimental: Cell culture. Wildtype (WT) mouse embryonic fibroblasts (MEFs) were seeded into 6-well plates. 24 hr after seeding the cells were incubated in culture media with HCQ concentrations of 3.125-50 uM for 1 hr prior to transduction with a rAAV2.CAG.GFP.WPRE.pA vector at a MOI of 1000. The cells were cultured in HCQ containing media until harvesting. Cells were imaged 3 days post-transduction (FIG. 1A).
Flow cytometry analysis. Cells were processed 3 days post-transduction and stained with the cell viability dye 7-AAD for 5 minutes prior to flow cytometry analysis. Fluorescent light was measured by a BD LSRFortessa flow cytometer using a blue laser with the bandpass filters 695 nm/[…] and 530 nm/[…] to detect the fluorochromes of 7-AAD and GFP, respectively (FIG. 1a).

[5] = test system: human retinal explants; assay: HCQ effect on AAV transduction in human retinal explants, mean grey value (GFP fluorescence); type: cell-based; conditions: 3.125 uM HCQ, 1×10^9 genome copies rAAV2.CAG.GFP.WPRE.pA, imaged every 2 days for 11 days, n=6, p=0.0213
Experimental: Harvesting tissue. Human retina fragments was extracted during routine retinal surgery in which a retinectomy was required (ethics approved). Fragments of retina were removed via a 23G sclerostomy with vitrectomy cutter (at minimal cut rate) and manual aspiration.
Culturing explants. Within 1 hr of tissue collection, retinal fragments were transferred using a 3 mL Pasteur pipette into individual organotypic culture inserts (BD Falcon), which were in turn placed within a 24-well plate. 400 uL of media was placed beneath the insert and 100 uL of media within the insert. 24 hr after culturing the retinal explants, the media was replaced with media containing 3.125 uM or 18.75 uM of HCQ. The explants were incubated in the HCQ medium for 1 hour prior to transduction with 1×10^9 genome copies of rAAV2.CAG.GFP.WPRE.pA vector. The explants were imaged every 2 days for 11 days and the mean grey value (representative of GFP fluorescence) of the explants was measured using ImageJ software (FIG. 3a).

[6] = test system: retina of C57BL/6 mice; assay: Subretinal co-injection of AAV GFP vector and HCQ in mice, cSLO fundus autofluorescence; type: in vivo, mouse; conditions: AAV 1×10^8 genome copies with 18.75 uM HCQ, 4 and 8 weeks post-injection
Experimental: as §3
Confocal scanning laser ophthalmoscope (cSLO) analysis. Standardized mouse autofluorescence (AF) imaging using a cSLO (Spectralis HRA, Heidelberg Engineering) was performed in all animals according to previously published protocol. All images were recorded using the 55° lens of the Spectralis HRA at 2, 4 and 8 weeks post-injection. Images were recorded using a standardized signal detector sensitivity. For quantitative analysis of fundus AF, the mean grey level was measured within a ring-shaped area located at radii between 350 and 860 pixels from the optic disc centre using ImageJ software (NIH).

[7] = test system: Primary NHP RPE cells; assay: HCQ effect on AAV transduction in primary NHP RPE cells, GFP qPCR; type: cell-based, Rhesus macaque (M. mullata); conditions: 18.75 μM HCQ, 3 days post-transduction, normalized to β-actin, N=3, p=0.0253
Experimental: as §1, §2
RNA & protein extraction and cDNA synthesis. The primary NHP RPE were harvested for RNA extraction 3-days post-AAV transduction with HCQ. Total RNA was extracted using the RNeasy Mini Kit (Qiagen) according to the manufacturer's instructions. Copy DNA was synthesised using 850-1500 ng of RNA using the Superscript III Kit (Invitrogen) with an oligo dT primer.
qPCR analysis. qPCR was carried out using TaqMan probes against GFP and β-actin in a CFX Connect thermal cycler (BioRad). GFP expression was normalized to β-actin and represented as a fold change to transduced cells incubated without HCQ.

[8] = test system: Mouse retinas; assay: Subretinal co-injection of AAV GFP vector and HCQ in mice, GFP western blot of retinas; type: in vivo; conditions: 18.75 μM HCQ
Experimental: as §3
Protein extraction. Mouse retinas were thawed on ice and lysed in 1× RIPA buffer+protease inhibitors. The retinas were homogenised using a hand-held homogeniser and incubated on ice for 30 mins. The samples were centrifuged at 17,000×g at 4° C. for 20 mins. The supernatant was transferred to a new tube and kept on ice.
Western blot (WB). Total protein content in cell lysates was determined using the bicinchoninic acid method. GFP and actin proteins were probed using monoclonal antibodies, and detected using ECL and Odyssey Imaging System (LI-COR). Data analysis was performed using ImageStudio Lite software (LI-COR). GFP band density was normalised to actin.

Row | SMILES | half-life compared with the other enantiomer [1] | GFP protein expression increase compared to transduced cells incubated without HCQ ([2]; 3 days post-transduction (FIGS. 2a and 2b)) [fold] | GFP protein expression improvement by western blot ([2]; N=2, GFP band density normalised to β-actin (FIG. 2c)) | mean retinal thickness or retinal morphology, groups with and without HCQ [3] | HCQ concentration that induces cell death ([4]; 7-AAD viability dye, 3 days post-transduction) [µM] | number of GFP expressing cells ([4]; HCQ 3.125-50 uM from 1 hr before transduction, rAAV2.CAG.GFP.WPRE.pA MOI 1000, 3 days post-transduction) | increase in mean grey value (representative of GFP fluorescence) compared to no HCQ [5] | increase in mean grey value of fundus AF images (surrogate measure of GFP expression) compared to control eyes injected with AAV only [6] [fold] | GFP mRNA expression, fold change to transduced cells incubated without HCQ [7] [fold] | GFP signal detected by WB compared to the 0 μM HCQ paired eye [8]
1 | O[C@H](c1cc(C(F)(F)F)nc2c(C(F)(F)F)cccc12)[C@@H]1CCCCN1 (single isomer, unassigned) [(+)-enantiomer] | shorter |  |  |  |  |  |  |  |  | 
2 | CCN(CCO)CCCC(C)Nc1ccnc2cc(Cl)ccc12 (stereo not shown) [HCQ, 2-[{4-[(7-chloroquinolin-4-yl)amino]pentyl}(ethyl)amino]ethanol] |  | 19 | approximately 4 fold | no significant difference | ≥ 25 | increase the number of GFP expressing cells up to 18.75 uM | up to 2 fold | 2 | 3 | increase in the GFP signal
